Results on 1 compound are retold here after patent US5157052A, “Method for inhibiting IgE production” (priority 1990, dated 1992).

Molecules are shown by their SMILES.

Holding throughout (assay type): in vivo, mouse (Balb/c female)
The test system of one test is κ Light Chain. The test is described as follows: Splenocyte cell surface density/distribution (FACS): κ Light Chain. The procedure:
(§1) One group of 4 unstimulated Balb/c female mice is injected with PBS (Group A). Another (Group B) is injected with 20 μg (±) methyl 11α,16-dihydroxy-16-methyl-9-oxoprosta-5Z,13E-dien-1-oate as in Example 13. […] A 3 cm incision is made with a scalpel above the left hip, and the spleen is cut free from adjoining tissue and placed in a 100 mn plastic culture dish containing 10 ml PBS. The splenic cells are then made into a suspension, by rubbing the spleens between the rough, frosted ends of microscope slides repeatedly until the only remaining particulate matter is connective tissue. Cells are transferred to a 15 ml conical polystyrene tube and centrifuged in a centrifuge at 1200 rpm for 5 minutes. The supernatant is discarded by aspiration and the cell pellet is resuspended in 10 ml PBS, then centrifuged at 1200 rpm for 5 minutes. The supernatant is aspirated and the cell pellet is resuspended in 15 mM Tris, 140 mM Ammonium Chloride, to lyse red blood cells. After incubating at room temperature for 10 minutes the cell suspension is centrifuged at 1200 rpm for 10 minutes. The supernatant is discarded and the cell pellet is resuspended in 10 ml FACS Buffer (PBS containing 0.1% BSA and 0.1% Sodium Azide). The cell suspension is filtered through sterile glass wool plugged in the top of a pasteur pipet. Cells in the flow through are counted using a hemacytometer, then the cell suspension is centrifuged at 1200 rpm for 5 minutes. The supernatant is discarded and the cell pellet is resuspended in a volume of FACS Buffer that will yield 4×10^7 cells/ml. 10 μl (4×10^5 cells) is added to each well of a 96-well V-bottom plate. 25 μl of diluted monoclonal antibody directed against splenocyte cell surface proteins is added to each well: Major Histocompatability Complex (MHC) Class II (M5114, ATCC, Rockville Md.), MHC Class I (M1/42, ATCC), Anti-IgD (JA12.5, ATCC, Rockville, Md.), Thymocyte (Thy)-1 (JIJ, ATCC), B220 (14.8, ATCC), Kappa light chain (187, ATCC), IL-2 Receptor (7D4, ATCC), Lyt-1 (7.313, ATCC) and CD23 (biotinylated B3B4) and incubated on ice for 30 minutes. 100 μl 10% BSA 0.1% sodium azide is added to each well, then the plates are centrifuged at 1200 rpm for 10 minutes. The liquid is removed by aspiration and the cell pellets are resuspended in 100 μl FACS Buffer, and centrifuged at 1200 rpm for 5 minutes. […] Samples are transferred to individual tubes and 10,000 cells are analyzed. Using the Lysis software (Becton Dickinson, Mountain View, Calif.) the mean channel log fluorescence and percent positive cells are determined for the entire cell population. […]

The next test has as its system MHC Class II. The test is described as follows: Splenocyte cell surface density/distribution (FACS): MHC Class II. The procedure:
as §1

The test system of the next test is Lyt 1. Briefly: Splenocyte cell surface density/distribution (FACS): Lyt 1.

Take `CCCCC(C)(O)C/C=C/[C@H]1[C@H](O)CC(=O)[C@@H]1C/C=C\CCCC(=O)OC` (mixture of isomers) [(±) methyl 11α,16-dihydroxy-16-methyl-9-oxoprosta-5Z,13E-dien-1-oate]: the “Percentage Positive Cells” value in the test on κ Light Chain (anti-IgD stimulated mice, 20 μg days 3 and 4, day 7 (PBS 50)) is 58 ± 14.6%; with κ Light Chain (unstimulated mice, 20 μg (PBS 52.1)), 53.9 ± 2.1%; in the test on MHC Class II (anti-IgD stimulated mice, 20 μg days 3 and 4, day 7 (PBS 59.8)), 68.6 ± 5.1%; with MHC Class II (unstimulated mice, 20 μg (PBS 56.2)), 56.9 ± .4%; in the test with Lyt 1 (anti-IgD stimulated mice, 20 μg days 3 and 4, day 7 (PBS 31.3)), 30.4 ± 8.8%; in the test on Lyt 1 (unstimulated mice, 20 μg (PBS 31)), 44.5 ± 7%. Further, the “Mean Channel Log Fluorescence” value in the test on κ Light Chain (anti-IgD stimulated mice, 20 μg days 3 and 4, day 7 (PBS 118)) is 119 ± 7; in the test on κ Light Chain (unstimulated mice, 20 μg (PBS 135)) it was 131 ± 4; with MHC Class II (anti-IgD stimulated mice, 20 μg days 3 and 4, day 7 (PBS 134)), 137 ± 15; in the test on MHC Class II (unstimulated mice, 20 μg (PBS 148)) it was 149 ± 8; in the test on Lyt 1 (anti-IgD stimulated mice, 20 μg days 3 and 4, day 7 (PBS 110)), 109 ± 2; in the test on Lyt 1 (unstimulated mice, 20 μg (PBS 110)) it was 117 ± 6.
